From ChEMBL document CHEMBL5143540, “Design, synthesis and biological evaluation of nitrofuran-1,3,4-oxadiazole hybrids as new antitubercular agents” (Bioorg Med Chem, 2022)
≈ marks a conversion by molar mass, not a printed value.

Key:
[1] = system: Mycobacterium tuberculosis; assay: Antitubercular activity against Mycobacterium tuberculosis H37Ra ATCC 25177 assessed as reduction in bacterial growth incubated for 7 days by Alamar blue assay; type: functional; details: H37Ra ATCC 25177, 168 h, time 7 day
[2] = Cytotoxicity against african green monkey Vero cells assessed as reduction in cell viability after 72 hrs by MTT assay; type: toxicity, cell-based; details: chlorocebus sabaeus
[3] = Half life in ICR mouse at 25 mg/kg, po measured upto 24 hrs by HPLC analysis; type: ADME, organism-based; details: in vivo
[4] = Tmax in ICR mouse at 25 mg/kg, po measured upto 24 hrs by HPLC analysis; type: ADME, organism-based; details: in vivo
[5] = Cmax in ICR mouse at 25 mg/kg, po measured upto 24 hrs by HPLC analysis; type: ADME, organism-based; design: dose 25 mg/kg, time < 24 hrs, route po; details: in vivo
[6] = AUC(0 to infinity) in ICR mouse at 25 mg/kg, po measured upto 24 hrs by HPLC analysis; type: ADME, organism-based; design: dose 25 mg/kg, time < 24 hrs, route po; details: in vivo
[7] = MRT in ICR mouse at 25 mg/kg, po measured upto 24 hrs by HPLC analysis; type: ADME, organism-based; details: in vivo
[8] = Volume of distribution in ICR mouse at 25 mg/kg, po measured upto 24 hrs by HPLC analysis; type: ADME, organism-based; details: in vivo
[9] = Clearance in ICR mouse at 25 mg/kg, po measured upto 24 hrs by HPLC analysis; type: ADME, organism-based; details: in vivo
hERG (KCNH2) = hERG (KCNH2) (Homo sapiens, UniProt Q12809); assay: Inhibition of human ERG expressed in HEK293 cells at 10 uM by whole cell electrophysiology assay relative to control; type: toxicity, cell-based; details: HEK293 cells expressing hERG
hERG (KCNH2), sequence (Q12809 whole entry): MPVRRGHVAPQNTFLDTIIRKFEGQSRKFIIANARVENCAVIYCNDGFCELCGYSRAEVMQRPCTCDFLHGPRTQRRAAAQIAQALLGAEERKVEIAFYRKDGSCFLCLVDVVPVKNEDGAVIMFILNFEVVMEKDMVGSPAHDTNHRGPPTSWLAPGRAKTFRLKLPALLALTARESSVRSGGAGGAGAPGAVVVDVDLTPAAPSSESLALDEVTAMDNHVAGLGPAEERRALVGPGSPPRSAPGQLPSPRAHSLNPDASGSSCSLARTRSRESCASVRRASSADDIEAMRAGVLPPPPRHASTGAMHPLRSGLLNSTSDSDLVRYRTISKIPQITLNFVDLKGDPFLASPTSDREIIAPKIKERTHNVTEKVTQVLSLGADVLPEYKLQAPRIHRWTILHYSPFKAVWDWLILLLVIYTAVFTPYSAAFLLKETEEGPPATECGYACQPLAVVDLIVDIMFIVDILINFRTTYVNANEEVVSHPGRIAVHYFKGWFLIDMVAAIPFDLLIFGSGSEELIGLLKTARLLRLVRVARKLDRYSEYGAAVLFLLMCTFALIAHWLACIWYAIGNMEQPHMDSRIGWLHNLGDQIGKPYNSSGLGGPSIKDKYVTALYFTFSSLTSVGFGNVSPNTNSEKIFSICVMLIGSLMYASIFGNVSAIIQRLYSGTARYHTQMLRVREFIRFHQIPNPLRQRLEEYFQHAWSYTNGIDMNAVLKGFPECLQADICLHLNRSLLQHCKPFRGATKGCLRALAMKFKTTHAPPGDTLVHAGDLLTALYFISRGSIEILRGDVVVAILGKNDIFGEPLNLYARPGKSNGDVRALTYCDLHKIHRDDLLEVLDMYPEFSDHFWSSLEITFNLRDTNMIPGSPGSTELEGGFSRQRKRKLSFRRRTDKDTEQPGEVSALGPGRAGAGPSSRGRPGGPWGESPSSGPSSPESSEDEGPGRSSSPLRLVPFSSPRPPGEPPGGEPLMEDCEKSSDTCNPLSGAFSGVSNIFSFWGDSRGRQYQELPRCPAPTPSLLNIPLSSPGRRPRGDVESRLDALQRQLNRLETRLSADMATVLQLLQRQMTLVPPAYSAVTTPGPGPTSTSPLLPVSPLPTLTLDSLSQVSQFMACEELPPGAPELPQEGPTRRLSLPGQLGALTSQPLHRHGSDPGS

[10] = target: Voltage-gated inwardly rectifying potassium channel KCNH2 (Homo sapiens, UniProt Q12809); assay: Inhibition of human ERG expressed in HEK293 cells by whole cell electrophysiology assay; type: toxicity, cell-based
Voltage-gated inwardly rectifying potassium channel KCNH2, sequence (Q12809 whole entry): as above

SMILES	MIC [1] [µg/mL]	also measured
O=C(Nc1nnc(-c2ccc(Cl)cc2)o1)c1ccc([N+](=O)[O-])o1	0.937 (≈ 2.8 µM)	
COc1ccc(-c2nnc(CNC(=O)c3ccc([N+](=O)[O-])o3)o2)cc1	7.07 (≈ 20.5 µM)	
O=[N+]([O-])c1ccc(-c2nnc(-c3ccc(C(F)(F)F)cc3)o2)o1	0.125 (≈ 0.384 µM)	
O=[N+]([O-])c1ccc(-c2nnc(C3CCCO3)o2)o1 (configuration not stated)	2 (≈ 7.96 µM)	
O=C(NCc1nnc(-c2ccccc2)o1)c1ccc([N+](=O)[O-])o1	2.43 (≈ 7.74 µM)	
CCC(CC)c1nnc(-c2ccc([N+](=O)[O-])o2)o1	0.911 (≈ 3.63 µM)	
O=C(Nc1nnc(C2CCCO2)o1)c1ccc([N+](=O)[O-])o1 (configuration not stated)	0.007 (≈ 0.0238 µM)	
O=[N+]([O-])c1ccc(-c2nnc(-c3ccccc3)o2)o1	1.59 (≈ 6.17 µM)	
COc1ccc(-c2nnc(-c3ccc([N+](=O)[O-])o3)o2)cc1	0.475 (≈ 1.65 µM)	
CC(C)(C)c1ccc(-c2nnc(CNC(=O)c3ccc([N+](=O)[O-])o3)o2)cc1	4.83 (≈ 13 µM)	CC50 at 72 h [2]: 3.62 µg/mL (≈ 9.79 µM); half-life [3]: 40.2 min; Tmax [4]: 15 min; Cmax [5]: 139 ng/mL; AUC(0-inf) [6]: 99.3 ng·h/mL; MRT [7]: 0.92 h; Vd [8]: 227 L/kg; CL/F [9]: 4600 mL/min/kg
CC(C)(C)c1ccc(-c2nnc(NC(=O)c3ccc([N+](=O)[O-])o3)o2)cc1	> 16	
CC(C)(C)c1ccc(-c2nnc(-c3ccc([N+](=O)[O-])o3)o2)cc1	0.06 (≈ 0.192 µM)	
O=C(Nc1nnc(-c2ccccn2)o1)c1ccc([N+](=O)[O-])o1	0.03 (≈ 0.0996 µM)	
O=C(NCc1nnc(-c2ccc(OC(F)(F)F)cc2)o1)c1ccc([N+](=O)[O-])o1	9.86 (≈ 24.8 µM)	CC50 at 72 h [2]: 3.48 µg/mL (≈ 8.74 µM)
O=[N+]([O-])c1ccc(-c2nnc(-c3ccc(OC(F)(F)F)cc3)o2)o1	0.178 (≈ 0.522 µM)	
O=C(Nc1nnc(C2CCCCC2)o1)c1ccc([N+](=O)[O-])o1	0.025 (≈ 0.0816 µM)	

SMILES	MIC [1] [µg/mL]	also measured
O=C(Nc1nnc(-c2ccncc2)o1)c1ccc([N+](=O)[O-])o1	0.038 (≈ 0.126 µM)	
CC(C)c1nnc(-c2ccc([N+](=O)[O-])o2)o1	0.709 (≈ 3.18 µM)	
O=C(Nc1nnc(-c2ccc(Br)cc2)o1)c1ccc([N+](=O)[O-])o1	0.795 (≈ 2.1 µM)	CC50 at 72 h [2]: 57.3 µg/mL (≈ 151 µM); half-life [3]: 270 min; Tmax [4]: 15 min; Cmax [5]: 15800 ng/mL; AUC(0-inf) [6]: 110000 ng·h/mL; MRT [7]: 6.37 h; Vd [8]: 1.46 L/kg; CL/F [9]: 3.79 mL/min/kg; inhibition at 10 µM (hERG (KCNH2)): 11.3%; IC50 [10]: > 10 µM
O=[N+]([O-])c1ccc(-c2nnc(-c3ccc(Br)cc3)o2)o1	0.597 (≈ 1.78 µM)	
O=[N+]([O-])c1ccc(-c2nnc(C3CCCCC3)o2)o1	1.97 (≈ 7.47 µM)	
O=C(NCc1nnc(-c2ccc(C(F)(F)F)cc2)o1)c1ccc([N+](=O)[O-])o1	3.73 (≈ 9.75 µM)	CC50 at 72 h [2]: 3.56 µg/mL (≈ 9.32 µM)
COc1ccc(Cc2nnc(NC(=O)c3ccc([N+](=O)[O-])o3)o2)cc1	0.02 (≈ 0.0581 µM)	
COc1ccc(-c2nnc(NC(=O)c3ccc([N+](=O)[O-])o3)o2)cc1	0.191 (≈ 0.578 µM)	
O=C(Nc1nnc(-c2cccnc2)o1)c1ccc([N+](=O)[O-])o1	0.037 (≈ 0.123 µM)	
O=C(Nc1nnc(-c2ccc(F)cc2)o1)c1ccc([N+](=O)[O-])o1	2.47 (≈ 7.77 µM)	
O=C(Nc1nnc(-c2ccc(C(F)(F)F)cc2)o1)c1ccc([N+](=O)[O-])o1	0.999 (≈ 2.71 µM)	
O=C(Nc1nnc(-c2ccc(OC(F)(F)F)cc2)o1)c1ccc([N+](=O)[O-])o1	1.23 (≈ 3.2 µM)	
NNC(=O)c1ccncc1 [ISONIAZID]	> 16	
O=c1nc(N2CCN(CC3CCCCC3)CC2)sc2c([N+](=O)[O-])cc(C(F)(F)F)cc12 [MACOZINONE]		Vd [8]: 56.8 L/kg; CL/F [9]: 279 mL/min/kg
CO[C@H]1/C=C/O[C@@]2(C)Oc3c(C)c(O)c4c(O)c(c(/C=N/N5CCN(C)CC5)c(O)c4c3C2=O)NC(=O)/C(C)=C\C=C\[C@H](C)[C@H](O)[C@@H](C)[C@@H](O)[C@@H](C)[C@H](OC(C)=O)[C@@H]1C [RIFAMPIN]	> 16	
